From patent publication US20240287022A1 (Merck Sharp & Dohme LLC, priority 2021, published 2024)
pEC50: −log10 of the molar value.

Target: recombinant IL4I1 (Homo sapiens (Human), UniProt Q96RQ9)
Assay: IL4I1 Enzymatic Assay (Amplex Red/HRP coupled H2O2 detection)
Type: biochemical
Conditions: 1 nM IL4I1, 1 mM each Phe/Tyr/Trp, four-hour pre-incubation, 120 minutes reaction, top compound concentration of 10000 nM
How it was run: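 Recombinant IL4I1 (1 nM final) was pre-incubated 4 h at ambient temperature with compound in 50 mM Hepes pH 7.0, 0.005% Tween20. Reaction ran 120 min with 1 mM each Phe/Tyr/Trp, 0.05 mM Amplex Red and 1 U/mL HRP. Resorufin fluorescence (544/590 nm) was read, and EC50 fitted from ten-point 1:3 titrations (top 10000 nM) by four-parameter regression.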

Sequence of recombinant IL4I1 (Q96RQ9 22-567): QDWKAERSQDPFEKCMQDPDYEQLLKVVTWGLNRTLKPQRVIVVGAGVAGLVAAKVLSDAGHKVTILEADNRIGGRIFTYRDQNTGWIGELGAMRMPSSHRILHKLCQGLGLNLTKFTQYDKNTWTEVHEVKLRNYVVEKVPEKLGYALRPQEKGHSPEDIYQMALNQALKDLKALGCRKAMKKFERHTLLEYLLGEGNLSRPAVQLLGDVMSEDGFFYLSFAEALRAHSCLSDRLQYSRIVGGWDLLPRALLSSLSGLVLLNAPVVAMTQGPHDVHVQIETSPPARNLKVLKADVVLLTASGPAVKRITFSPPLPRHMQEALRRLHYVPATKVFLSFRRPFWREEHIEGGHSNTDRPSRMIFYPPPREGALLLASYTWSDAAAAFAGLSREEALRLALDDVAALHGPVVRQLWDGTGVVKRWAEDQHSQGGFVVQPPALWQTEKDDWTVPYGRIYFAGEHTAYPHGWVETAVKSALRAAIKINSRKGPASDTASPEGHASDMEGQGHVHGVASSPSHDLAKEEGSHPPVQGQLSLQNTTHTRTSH

Structure (SMILES)	pEC50
O=c1[nH]c2ccccc2cc1Cc1nnc(-c2c[nH]c(C3CC3)n2)o1 [Example 18, 3-((5-(2-cyclopropyl-1H-imidazol-4-yl)-1,3,4-oxadiazol-2-yl)methyl)quinolin-2(1H)-one]	7.63
Cc1onc(-c2nnc(Cc3cc4ccccc4[nH]c3=O)o2)c1C [Example 14, 3-((5-(4,5-dimethylisoxazol-3-yl)-1,3,4-oxadiazol-2-yl)methyl)quinolin-2(1H)-one]	6.82
CC1(O)CN(C(=O)c2ccc(Cc3cc4ccccc4[nH]c3=O)cc2)C1 [compound 2, 3-(4-(3-hydroxy-3-methylazetidine-1-carbonyl)benzyl)-quinolin-2(1H)-one]	7.46
CC(C)(O)CN1Cc2ccc(Cc3cc4ccccc4[nH]c3=O)cc2C1=O [Example 94, 3-((2-(2-hydroxy-2-methylpropyl)-3-oxoisoindolin-5-yl)methyl)quinolin-2(1H)-one]	7.53
O=c1[nH]c2cnccc2cc1Cc1ccccc1 [Example 104, 3-benzyl-1,7-naphthyridin-2(1H)-one]	5.04
Cc1cnc(-c2nnc(Cc3cc4ccccc4[nH]c3=O)o2)s1 [Example 22, 3-((5-(5-methylthiazol-2-yl)-1,3,4-oxadiazol-2-yl)methyl)quinolin-2(1H)-one]	6.69
N#Cc1ccc(F)c(-c2nnc(Cc3cc4ccccc4[nH]c3=O)o2)c1 [Example 33, 4-fluoro-3-(5-((2-oxo-1,2-dihydroquinolin-3-yl)methyl)-1,3,4-oxadiazol-2-yl)benzonitrile]	7.19
O=c1[nH]c2ccccc2cc1Cc1nnc(-c2scnc2Cl)o1 [Example 38, 3-((5-(4-chlorothiazol-5-yl)-1,3,4-oxadiazol-2-yl)methyl)quinolin-2(1H)-one]	7.60
CC(=O)NCc1ccc(Cc2cc3ccccc3[nH]c2=O)c(Cl)c1 [compound 67, N-(3-chloro-4-((2-oxo-1,2-dihydroquinolin-3-yl)-methyl)benzyl)acetamide]	7.81
NS(=O)(=O)c1cccc(Cc2cc3ccccc3[nH]c2=O)c1 [Example 141, 3-((2-oxo-1,2-dihydroquinolin-3-yl)methyl)benzenesulfonamide]	7.69
Cc1nnc(Cc2cc3ccccc3[nH]c2=O)o1 [Example 20, 3-((5-methyl-1,3,4-oxadiazol-2-yl)methyl)quinolin-2(1H)-one]	6.20
O=c1[nH]c2ccccc2cc1Cc1cc(-c2ccccc2)no1 [Example 140, 3-((3-phenylisoxazol-5-yl)methyl)quinolin-2(1H)-one]	7.63
Cc1c(Cc2ccccc2)c(=O)[nH]c2ccccc12 [Example 164, 3-Benzyl-4-methylquinolin-2(1H)-one]	5.00
O=c1[nH]c2ccccc2cc1Cc1nnc(Cc2cccnn2)o1 [Example 25]	6.21
O=c1[nH]c2ccccc2cc1Cc1nnc(C2CCCCC2)o1 [Example 9, 3-((5-cyclohexyl-1,3,4-oxadiazol-2-yl)methyl)quinolin-2(1H)-one]	7.29

The next compounds have a higher pEC50 than those just listed; values first:

pEC50	Structure (SMILES)
8.70	N#Cc1c[nH]c2ccc(Cc3cc4ccccc4[nH]c3=O)nc12 [Example 96, 5-((2-oxo-1,2-dihydroquinolin-3-yl)methyl)-1H-pyrrolo[3,2-b]pyridine-3-carbonitrile]
8.28	CC(O)C(C#N)c1ccc(Cc2cc3ccccc3[nH]c2=O)cc1 (single isomer, unassigned) [Example 102A, 3-hydroxy-2-(4-((2-oxo-1,2-dihydroquinolin-3-yl)methyl)phenyl)butanenitrile]
8.57	O=C1OCCN1c1ccc(Cc2cc3cnccc3[nH]c2=O)cc1 [Example 61, 3-(4-((2-oxo-1,2-dihydro-1,6-naphthyridin-3-yl)methyl)phenyl)oxazolidin-2-one]
8.43	NS(=O)(=O)c1c(Cl)cc(Cc2cc3ccccc3[nH]c2=O)cc1Cl [Example 71, 2,6-dichloro-4-((2-oxo-1,2-dihydroquinolin-3-yl)methyl)benzenesulfonamide]
8.57	O=c1[nH]c2ccccc2cc1Cc1ccc(C(O)C(F)(F)F)cc1 (racemic) [Example 126, rac-3-(4-(2,2,2-trifluoro-1-hydroxyethyl)benzyl)quinolin-2(1H)-one]
8.68	O=c1[nH]c2ccccc2cc1Cc1ccc(-c2cnccn2)c(F)c1 [Example 127, 3-(3-fluoro-4-(pyrazin-2-yl)benzyl)quinolin-2(1H)-one]
8.15	O=C1COc2ccc(Cc3cc4ccccc4[nH]c3=O)c(F)c2N1 [Example 171, 5-Fluoro-6-((2-oxo-1,2-dihydroquinolin-3-yl)methyl)-2H-benzo[b][1,4]oxazin-3(4H)-one]
8.59	N#CC1(c2ccc(Cc3cc4ccccc4[nH]c3=O)cc2)CC(O)C1 (single isomer, unassigned) [Example 101A, 3-hydroxy-1-(4-((2-oxo-1,2-dihydroquinolin-3-yl)methyl)phenyl)cyclobutane-1-carbonitrile]
8.33	O=C1NCCc2ccc(Cc3cc4ccccc4[nH]c3=O)cc21 [Example 77]
8.15	O=c1[nH]c2ccccc2cc1Cc1ccc([C@@H]2CCNC2)cc1 [65A]
7.86	Cc1noc(C(C)C)c1-c1nnc(Cc2cc3ccccc3[nH]c2=O)o1 [Example 15, 3-((5-(5-isopropyl-3-methylisoxazol-4-yl)-1,3,4-oxadiazol-2-yl)methyl)quinolin-2(1H)-one]
8.59	Cn1c(=O)c(Cc2ccc(C(C)(C)O)cc2)cc2ccccc21 [Example 143, 3-(4-(2-hydroxypropan-2-yl)benzyl)-1-methylquinolin-2(1H)-one]
8.46	CC(=O)NCc1ccc(Cc2cc3ccccc3[nH]c2=O)cc1 [Example 124, N-(4-((2-oxo-1,2-dihydroquinolin-3-yl)methyl)benzyl)acetamide]
8.11	CC(O)C(C#N)c1ccc(Cc2cc3ccccc3[nH]c2=O)cc1 (single isomer, unassigned) [Example 102B, 3-hydroxy-2-(4-((2-oxo-1,2-dihydroquinolin-3-yl)methyl)phenyl)butanenitrile]
8.70	O=C1COc2ccc(Cc3cc4ccccc4[nH]c3=O)cc2N1 [Example 155, 6-((2-oxo-1,2-dihydroquinolin-3-yl)methyl)-2H-benzo[b][1,4]oxazin-3(4H)-one]
